Activity calls are given as the source filed them. No cut-off for these calls is given here.
What was measured:
[1] = target: ELAV-like protein 1 (Homo sapiens) (UniProt Q15717); test: Inhibition of HuR (unknown origin) assessed as reduction in protein-mRNA interaction at 0.5 to 100 uM preincubated for 1 hr followed by mRNA addition and measured after 1.5 hrs by fluorescence polarization assay; settings: dose 0.5-100 µM, time 2.5 hrs
[2] = Retention time of the compound in acetate buffer by HPLC-UV analysis; format: physicochemical

Chain of ELAV-like protein 1 (Homo sapiens) (Q15717 whole entry): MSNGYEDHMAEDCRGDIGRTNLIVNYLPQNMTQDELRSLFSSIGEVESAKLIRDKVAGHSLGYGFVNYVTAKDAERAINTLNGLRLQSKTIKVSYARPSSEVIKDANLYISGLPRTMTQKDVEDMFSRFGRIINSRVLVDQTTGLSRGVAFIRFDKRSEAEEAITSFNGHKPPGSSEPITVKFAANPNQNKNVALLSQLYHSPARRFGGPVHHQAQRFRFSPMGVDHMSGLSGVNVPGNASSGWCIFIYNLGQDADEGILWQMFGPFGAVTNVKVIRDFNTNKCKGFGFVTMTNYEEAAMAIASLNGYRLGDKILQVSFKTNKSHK

inhibition [1]	Retention_time [2]	SMILES
Active		Cc1cccc(Cn2nc(C(C)(C)C)cc2C(=O)N/N=C/c2ccc3cn[nH]c3c2)c1
Active	12.86 min	O=C(COc1ccc(Cl)cc1Cl)N/N=C/c1csc(Br)n1
Active		Cc1cccc(Cn2nc(C(C)(C)C)cc2C(=O)N/N=C/c2csc(Br)n2)c1
